Assay results from US8378104B2 (OSI Pharmaceuticals, LLC, priority 2010, dated 2013).
Counter-ions that a name gives are not always drawn.

The compounds below were run against T1, TAK1-TAB1 fusion protein (Homo sapiens, UniProt O43318) (assay: TAK1 biochemical assay (AlphaScreen, GST-MAP2K7 substrate)). Conditions: not given.
T1 construct: purchased Carna
T1 sequence (O43318 with tags, fused parts or gaps limits assumed): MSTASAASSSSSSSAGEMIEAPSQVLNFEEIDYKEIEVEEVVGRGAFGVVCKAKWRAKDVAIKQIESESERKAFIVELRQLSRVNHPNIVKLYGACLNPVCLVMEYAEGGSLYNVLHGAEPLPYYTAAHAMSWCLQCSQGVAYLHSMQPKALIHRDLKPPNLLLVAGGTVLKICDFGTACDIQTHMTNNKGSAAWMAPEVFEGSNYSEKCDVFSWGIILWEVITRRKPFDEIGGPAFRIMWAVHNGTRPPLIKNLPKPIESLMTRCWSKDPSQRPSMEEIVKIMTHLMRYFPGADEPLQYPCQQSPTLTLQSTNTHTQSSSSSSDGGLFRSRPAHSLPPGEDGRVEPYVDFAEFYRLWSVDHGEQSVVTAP

IC50 [nM] | Compound
100 to 1000 | COc1nn(C)cc1-c1cnc(N)c2oc(-c3csc4cnccc34)cc12 [Example 343, 4-(3-methoxy-1-methyl-1H-pyrazol-4-yl)-2-thieno[2,3-c]pyridin-3-yl-furo[2,3-c]pyridin-7-ylamine]
1000 to 10000 | Cc1c(-c2cnc(N)c3oc(-c4csc5cnccc45)cc23)cnn1C [Example 292, 4-(1,5-dimethyl-1H-pyrazol-4-yl)-2-thieno[2,3-c]pyridin-3-yl-furo[2,3-c]pyridin-7-ylamine]

Same assay, conditions: TAK1-TAB1 fusion protein, GST-MAP2K7 substrate; read-out: mean TAK1 IC50 (Col. A)

Compound | IC50 [nM]
Cc1n[nH]c(C)c1-c1cnc(N)c2oc(-c3csc4cnccc34)cc12 [Example 295, 4-(3,5-dimethyl-1H-pyrazol-4-yl)-2-thieno[2,3-c]pyridin-3-yl-furo[2,3-c]pyridin-7-ylamine] | 1000 to 10000
CC(=O)N1CCC(n2cc(-c3cnc(N)c4oc(-c5cccc(OCc6ccccc6)c5)cc34)cn2)CC1 [Example 164, 1-[4-(4-{7-amino-2-[3-(benzyloxy)phenyl]furo[2,3-c]pyridin-4-yl}-1H-pyrazol-1-yl)piperidin-1-yl]ethanone] | > 10000
Nc1ncc(-c2cnn(C3CCNCC3)c2)c2c(Cl)c(-c3ccc4[nH]ncc4c3)oc12 [Example 399, 3-chloro-2-(1H-indazol-5-yl)-4-[1-(piperidin-4-yl)-1H-pyrazol-4-yl]furo[2,3-c]pyridin-7-amine hydrochloride] | 1000 to 10000
Nc1ncc(-c2ccc(C(=O)O)s2)c2cc(-c3csc4cnccc34)oc12 [Example 381, 5-(7-amino-2-thieno[2,3-c]pyridin-3-yl-furo[2,3-c]pyridin-4-yl)-thiophene-2-carboxylic acid] | 1000 to 10000
Nc1ncc(-c2cnn(C3CCNCC3)c2)c2cc(-c3ccsc3)oc12 [Example 28, 4-[1-(piperidin-4-yl)-1H-pyrazol-4-yl]-2-(thiophen-3-yl)furo[2,3-c]pyridine-7-amine] | 1000 to 10000
CC(=O)N1CCC(n2cc(-c3cnc(N)c4oc(-c5ccccc5C(F)(F)F)cc34)cn2)CC1 [Example 411, 1-[4-(4-{7-amino-2-[2-(trifluoromethyl)phenyl]furo[2,3-c]pyridin-4-yl}-1H-pyrazol-1-yl)piperidin-1-yl]ethanone] | > 10000
CC(=O)N1CCC(n2cc(-c3cnc(N)c4oc(-c5cccc(C(N)=O)c5)cc34)cn2)CC1 [Example 122, 3-{4-[1-(1-acetylpiperidin-4-yl)-1H-pyrazol-4-yl]-7-aminofuro[2,3-c]pyridin-2-yl}benzamide] | 100 to 1000
Nc1ncc(-c2cnn(C3CCNCC3)c2)c2cc(-c3ccc4[nH]cnc4c3)oc12 [Example 39, 2-(1H-benzimidazol-5-yl)-4-[1-(piperidin-4-yl)-1H-pyrazol-4-yl]furo[2,3-c]pyridine-7-amine] | 100 to 1000
COCCOc1cccc(-c2cc3c(-c4cnn(C5CCN(C(C)=O)CC5)c4)cnc(N)c3o2)c1 [Example 200, 1-[4-(4-{7-amino-2-[3-(2-methoxyethoxy)phenyl]furo[2,3-c]pyridin-4-yl}-1H-pyrazol-1-yl)piperidin-1-yl]ethanone] | 1000 to 10000
Nc1ncc(-c2cnn(C3CCNCC3)c2)c2cc(-c3ccoc3)oc12 [Example 21, 2-(furan-3-yl)-4-[1-(piperidin-4-yl)-1H-pyrazol-4-yl]furo[2,3-c]pyridine-7-amine] | 1000 to 10000
Nc1ncc(-c2cnn(C3CCNCC3)c2)c2cc(-c3cccc4c3NC(=O)C4)oc12 [Example 44, 7-{7-amino-4-[1-(piperidin-4-yl)-1H-pyrazol-4-yl]furo[2,3-c]pyridine-2-yl}-1,3-dihydro-2H-indol-2-one] | 1000 to 10000
Nc1ncc(-c2cnn(C3CCNCC3)c2)c2cc(-c3cccc4ccsc34)oc12 [Example 17, 4-{4-[7-amino-2-(1-benzothiophen-7-yl)furo[2,3-c]pyridine-4-yl]-1H-pyrazol-1-yl}piperidine hydrochloride] | 1000 to 10000
Cc1c(-c2cccc3ccsc23)oc2c(N)ncc(-c3cnn(C4CCNCC4)c3)c12 [Example 10, 2-(1-benzothiophen-7-yl)-3-methyl-4-[1-(piperidin-4-yl)-1H-pyrazol-4-yl]furo[2,3-c]pyridin-7-amine hydrochloride] | 1000 to 10000
Nc1ncc(-c2cnn(C3CCNCC3)c2)c2cc(-c3cccc(C(F)(F)F)c3)oc12 [Example 6, 4-[1-(piperidin-4-yl)-1H-pyrazol-4-yl]-2-[3-(trifluoromethyl)phenyl]furo[2,3-c]pyridin-7-amine] | 1000 to 10000
C[C@]1(O)CC[C@H](n2cc(-c3cnc(N)c4oc(-c5cccc6cnccc56)cc34)cn2)CC1 [Example 75, trans-4-{4-[7-amino-2-(isoquinolin-5-yl)furo[2,3-c]pyridin-4-yl]-1H-pyrazol-1-yl}-1-methylcyclohexanol] | 100 to 1000

Results, then the compound that gave them:

IC50 [nM] | Compound
1000 to 10000 | Cc1ncc(-c2cnc(N)c3oc(-c4csc5cnccc45)cc23)n1C [Example 397, 4-(2,3-dimethyl-3H-imidazol-4-yl)-2-thieno[2,3-c]pyridin-3-yl-furo[2,3-c]pyridin-7-ylamine]
> 10000 | N#Cc1sccc1-c1cnc(N)c2oc(-c3csc4cnccc34)cc12 [Example 384]
> 10000 | CC(C)(C)OC(=O)N1CCC(n2cc(-c3cnc(N)c4oc(-c5cccc6ccsc56)cc34)cn2)CC1 [Example 17A]
100 to 1000 | COc1ccccc1NCCC(=O)N1CCC(n2cc(-c3cnc(N)c4oc(-c5cccc6cnsc56)cc34)cn2)CC1 [Example 336, 1-{4-[4-(7-amino-2-benzo[d]iso-thiazol-7-yl-furo[2,3-c]pyridin-4-yl)-pyrazol-1-yl]-piperidin-1-yl}-3-(2-methoxy-phenyl-amino)-propan-1-one]
> 10000 | CCC(C)Oc1cccc(-c2cc3c(-c4cnn(C5CCN(C(C)=O)CC5)c4)cnc(N)c3o2)c1 (centres unmarked) [Example 210]
1000 to 10000 | COC(=O)c1cc(-c2cnc(N)c3oc(-c4csc5cnccc45)cc23)cn1C [Example 398, 4-(7-amino-2-thieno[2,3-c]pyridin-3-yl-furo[2,3-c]pyridin-4-yl)-1-methyl-1H-pyrrole-2-carboxylic acid methyl ester]
1000 to 10000 | Cc1nc(C)c(-c2cnc(N)c3oc(-c4csc5cnccc45)cc23)s1 [Example 394, 4-(2,4-dimethyl-thiazol-5-yl)-2-thieno[2,3-c]pyridin-3-yl-furo[2,3-c]pyridin-7-ylamine]
1000 to 10000 | CC(=O)Nc1cccc(-c2cc3c(-c4cnn(C5CCN(C(C)=O)CC5)c4)cnc(N)c3o2)c1 [Example 137, N-(3-{4-[1-(1-acetylpiperidin-4-yl) 1H-pyrazol-4-yl]-7-aminofuro[2,3-c]pyridin-2-yl}phenyl)acetamide]
1000 to 10000 | COc1ccc(COc2cccc(-c3cc4c(-c5cnn(C6CCN(C(C)=O)CC6)c5)cnc(N)c4o3)c2)cc1 [Example 182, 1-{4-[4-(7-amino-2-{3-[(4-methoxybenzyl)oxy]phenyl}furo[2,3-c]pyridin-4-yl)-1H-pyrazol-1-yl]piperidin-1-yl}ethanone]
100 to 1000 | CC(=O)N1CCC(n2cc(-c3cnc(N)c4oc(-c5ccc6cn[nH]c6c5)cc34)cn2)CC1 [Example 99, 1-(4-{4-[7-amino-2-(1H-indazol-6-yl)furo[2,3-c]pyridin-4-yl]-1H-pyrazol-1-yl}piperidin-1-yl)ethanone]
1000 to 10000 | Nc1ncc(-c2cnn([C@H]3CC[C@H](O)CC3)c2)c2cc(-c3cccc4ncccc34)oc12 [Example 235, trans-4-{4-[7-amino-2-(quinolin-5-yl)furo[2,3-c]pyridin-4-yl]-1H-pyrazol-1-yl}cyclohexanol]
1000 to 10000 | CC(=O)N1CCC(n2cc(-c3cnc(N)c4oc(-c5ccc(Cl)c(C(=O)O)c5)cc34)cn2)CC1 [Example 110, 5-{4-[1-(1-acetylpiperidin-4-yl)-1H-pyrazol-4-yl]-7-aminofuro[2,3-c]pyridin-2-yl}-2-chlorobenzoic acid hydrochloride]
1000 to 10000 | CC(=O)N1CCC(n2cc(-c3cnc(N)c4oc(-c5csc6cncc(Cl)c56)cc34)cn2)CC1 [Example 255]
1000 to 10000 | CSc1nc2cccc(-c3cc4c(-c5cnn(C6CCN(C(C)=O)CC6)c5)cnc(N)c4o3)c2s1 [Example 352, 1-[4-(4-{7-amino-2-[2-(methylsulfanyl)-1,3-benzothiazol-7-yl]furo[2,3-c]pyridin-4-yl}-1H-pyrazol-1-yl)piperidin-1-yl]ethanone trifluoroacetate]
> 10000 | CC(=O)N1CCC(n2cc(-c3cnc(N)c4oc(-c5ccc(COc6cccc7ccccc67)cc5)cc34)cn2)CC1 [Example 156, 1-{4-[4-(7-amino-2-{4-[(naphthalen-1-yloxy)methyl]phenyl}furo[2,3-c]pyridin-4-yl)-1H-pyrazol-1-yl]piperidin-1-yl}ethanone]
> 10000 | COC(=O)c1ccc(-c2cnc(N)c3oc(-c4csc5cnccc45)cc23)s1 [Example 382, 5-(7-amino-2-thieno[2,3-c]pyridin-3-yl-furo[2,3-c]pyridin-4-yl)-thiophene-2-carboxylic acid methyl ester]
1000 to 10000 | CCn1cc(-c2cnc(N)c3oc(-c4cccc5cnccc45)cc23)cn1 [Example 71, 4-(1-ethyl-1H-pyrazol-4-yl)-2-(isoquinolin-5-yl)furo[2,3-c]pyridin-7-amine]
1000 to 10000 | CC(=O)N1CCC(n2cc(-c3cnc(N)c4oc(-c5ccc6c(c5)NC(=O)C6)cc34)cn2)CC1 [Example 144, 6-{4-[1-(1-acetylpiperidin-4-yl)-1H-pyrazol-4-yl]-7-aminofuro[2,3-c]pyridin-2-yl}-1,3-dihydro-2H-indol-2-one]
